Measurements from the supplement of paper PMC8149375.

How the values were obtained:
Conditions in all cases: treatment: drug + dasatinib (fixed dose, not stated); 5 days
769-P [1] = assay: AUC of dose-response viability curve, drug + dasatinib, normalised to DMSO (arbitrary (AUC of normalised viability)); higher = less growth inhibition
Protocol: (§1)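 Primary HTS combination arm: 8 RCC cell lines treated with 8 doses (up to 10 uM) of each library drug plus a fixed dose of dasatinib (dose not stated) for 5 days; viability read by CellTiter-Glo and normalised to DMSO. GI50 was fitted with XLfit, AUC is the area under the dose-response curve, and minimum viability is the lowest fraction of DMSO viability across doses.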

UO-31 [2] = assay: as above
Protocol: as §1

TK-10 [3] = assay: as above
Protocol: as §1

SN12C [4] = assay: as above
Protocol: as §1

ACHN [5] = assay: as above
Protocol: as §1

CAKI-1 [6] = assay: as above
Protocol: as §1

786-O [7] = assay: as above
Protocol: as §1

A498 [8] = assay: as above
Protocol: as §1

769-P [9] = assay: GI50 of drug in presence of dasatinib; higher = less potent
Protocol: as §1

UO-31 [10] = assay: as above
Protocol: as §1

TK-10 [11] = assay: as above
Protocol: as §1

SN12C [12] = assay: as above
Protocol: as §1

ACHN [13] = assay: as above
Protocol: as §1

CAKI-1 [14] = assay: as above
Protocol: as §1

786-O [15] = assay: as above
Protocol: as §1

A498 [16] = assay: as above
Protocol: as §1

769-P [17] = assay: minimum viability across doses, drug + dasatinib, relative to DMSO (fraction); higher = less growth inhibition
Protocol: as §1

UO-31 [18] = assay: as above
Protocol: as §1

TK-10 [19] = assay: as above
Protocol: as §1

SN12C [20] = assay: as above
Protocol: as §1

ACHN [21] = assay: as above
Protocol: as §1

CAKI-1 [22] = assay: as above
Protocol: as §1

786-O [23] = assay: as above
Protocol: as §1

A498 [24] = assay: as above
Protocol: as §1

GI50 of drug (ACHN [13]) [nM] | GI50 of drug (786-O [15]) [nM] | SMILES | AUC of dose-response viability curve (769-P [1]) | AUC of dose-response viability curve (UO-31 [2]) | AUC of dose-response viability curve (TK-10 [3]) | AUC of dose-response viability curve (SN12C [4]) | AUC of dose-response viability curve (ACHN [5]) | AUC of dose-response viability curve (CAKI-1 [6]) | AUC of dose-response viability curve (786-O [7]) | AUC of dose-response viability curve (A498 [8]) | GI50 of drug (769-P [9]) [nM] | GI50 of drug (UO-31 [10]) [nM] | GI50 of drug (TK-10 [11]) [nM] | GI50 of drug (SN12C [12]) [nM] | GI50 of drug (CAKI-1 [14]) [nM] | GI50 of drug (A498 [16]) [nM] | minimum viability across doses (769-P [17]) | minimum viability across doses (UO-31 [18]) | minimum viability across doses (TK-10 [19]) | minimum viability across doses (SN12C [20]) | minimum viability across doses (ACHN [21]) | minimum viability across doses (CAKI-1 [22]) | minimum viability across doses (786-O [23]) | minimum viability across doses (A498 [24])
< 3 | < 3 | COc1cc2ncnc(Nc3ccc(F)c(Cl)c3)c2cc1NC(=O)/C=C/CN1CCCCC1 + Cc1nc(Nc2ncc(C(=O)Nc3c(C)cccc3Cl)s2)cc(N2CCN(CCO)CC2)n1 [dasatinib] | 1.25 | 2.31 | 1.46 | 1.81 | 0.908 | 1.63 | 1.02 | 2.74 | 25.5 | 1160 | 53.6 | 567 | 485 | 2350 | 0.00783 | 0.0145 | 0.00803 | 0.00664 | 0.00207 | 0.00568 | 0.0063 | 0.0146
475 | 798 | C[C@@H](Oc1cc(-c2cnn(C3CCNCC3)c2)cnc1N)c1c(Cl)ccc(F)c1Cl + Cc1nc(Nc2ncc(C(=O)Nc3c(C)cccc3Cl)s2)cc(N2CCN(CCO)CC2)n1 [dasatinib] | 2.43 | 2.11 | 2.65 | 1.98 | 1.81 | 1.91 | 2.22 | 2.68 | 2260 | 539 | 3550 | 748 | 837 | 3260 | 0.0606 | 0.0115 | 0.149 | 0.175 | 0.0735 | 0.0151 | 0.00845 | 0.284
3030 | 9120 | COCC(=O)NC/C=C/c1ccc2ncnc(Nc3ccc(Oc4ccc(C)nc4)c(C)c3)c2c1 + Cc1nc(Nc2ncc(C(=O)Nc3c(C)cccc3Cl)s2)cc(N2CCN(CCO)CC2)n1 [dasatinib] | 2.18 | 3.68 | 2.41 | 2.48 | 1.88 | 2.26 | 2.46 | 3.67 | 2130 | > 10000 | 3970 | > 10000 | 6790 | > 10000 | 0.253 | 0.653 | 0.406 | 0.632 | 0.386 | 0.492 | 0.479 | 0.925
659 | > 10000 | CCc1cc2c(cc1N1CCC(N3CCOCC3)CC1)C(C)(C)c1[nH]c3cc(C#N)ccc3c1C2=O + Cc1nc(Nc2ncc(C(=O)Nc3c(C)cccc3Cl)s2)cc(N2CCN(CCO)CC2)n1 [dasatinib] | 2.47 | 5.15 | 2.35 | 2.45 | 1.82 | 2.04 | 2.35 | 4.59 | > 10000 | 7800 | 5110 | > 10000 | 2340 | > 10000 | 0.535 | 0.0552 | 0.377 | 0.675 | 0.247 | 0.311 | 0.614 | 1.12
3.78 | 5280 | CN1CCN(c2cccc(Nc3nc4c(-c5ccc(S(C)(=O)=O)cc5)cccn4n3)c2)CC1 + Cc1nc(Nc2ncc(C(=O)Nc3c(C)cccc3Cl)s2)cc(N2CCN(CCO)CC2)n1 [dasatinib] | 2.27 | 3.59 | 2.12 | 2.37 | 1.23 | 1.84 | 2.21 | 3.99 | 4170 | 3160 | 1250 | > 10000 | 704 | > 10000 | 0.293 | 0.0195 | 0.174 | 0.246 | 0.0965 | 0.0803 | 0.443 | 1.02
134 | 30.8 | CC(C)(C)c1nc(-c2cccc(NS(=O)(=O)c3c(F)cccc3F)c2F)c(-c2ccnc(N)n2)s1 + Cc1nc(Nc2ncc(C(=O)Nc3c(C)cccc3Cl)s2)cc(N2CCN(CCO)CC2)n1 [dasatinib] | 2.36 | 3.99 | 2 | 2.61 | 1.51 | 1.48 | 1.49 | 4.08 | > 10000 | > 10000 | 563 | > 10000 | 121 | > 10000 | 0.55 | 0.58 | 0.3 | 0.684 | 0.113 | 0.0739 | 0.184 | 1.01
342 | 4460 | O=C(NOCC1CC1)c1ccc(F)c(F)c1Nc1ccc(I)cc1Cl + Cc1nc(Nc2ncc(C(=O)Nc3c(C)cccc3Cl)s2)cc(N2CCN(CCO)CC2)n1 [dasatinib] | 2.12 | 2.72 | 2.4 | 2.07 | 1.8 | 2.04 | 2.46 | 2.51 | 1780 | 2610 | 4600 | 1520 | 1480 | 3190 | 0.197 | 0.174 | 0.367 | 0.298 | 0.224 | 0.13 | 0.431 | 0.306
1830 | 552 | Nc1nc(NCCNc2ncc(-n3ccnc3)c(-c3ccc(Cl)cc3Cl)n2)ccc1[N+](=O)[O-] + Cc1nc(Nc2ncc(C(=O)Nc3c(C)cccc3Cl)s2)cc(N2CCN(CCO)CC2)n1 [dasatinib] | 2.13 | 3.5 | 2.25 | 2.28 | 1.88 | 2 | 1.93 | 3.68 | 1540 | 1600 | 1590 | 7550 | 1230 | 9900 | 0.0308 | 0.0119 | 0.0534 | 0.268 | 0.0281 | 0.0567 | 0.00601 | 0.474
3.94 | > 10000 | C#Cc1cccc(Nc2ncnc3cc(OCCOC)c(OCCO)cc23)c1 + Cc1nc(Nc2ncc(C(=O)Nc3c(C)cccc3Cl)s2)cc(N2CCN(CCO)CC2)n1 [dasatinib] | 2.11 | 4.6 | 2.1 | 2.43 | 1.13 | 2.09 | 2.72 | 3.63 | 760 | 9830 | 1300 | > 10000 | 1010 | > 10000 | 0.301 | 0.439 | 0.323 | 0.415 | 0.108 | 0.125 | 0.489 | 0.973
85.4 | 683 | COCCOc1ccc2c(c1)ncn2-c1ccc2cccc(N3CCC(N)CC3)c2n1 + Cc1nc(Nc2ncc(C(=O)Nc3c(C)cccc3Cl)s2)cc(N2CCN(CCO)CC2)n1 [dasatinib] | 2.23 | 3.4 | 2.2 | 2.36 | 1.73 | 1.85 | 1.86 | 2.84 | 1880 | 2910 | 1810 | 1690 | 471 | 3200 | 0.123 | 0.0088 | 0.261 | 0.041 | 0.0189 | 0.2 | 0.00646 | 0.0463
1920 | 102 | CC1(COc2ccc3c(c2)ncn3-c2ccc3cccc(N4CCC(N)CC4)c3n2)COC1 + Cc1nc(Nc2ncc(C(=O)Nc3c(C)cccc3Cl)s2)cc(N2CCN(CCO)CC2)n1 [dasatinib] | 1.8 | 2.77 | 2.42 | 2.14 | 1.96 | 1.9 | 1.64 | 2.83 | 1710 | 2230 | 3330 | 1280 | 928 | 2540 | 0.222 | 0.0108 | 0.181 | 0.0349 | 0.0128 | 0.192 | 0.00575 | 0.0198
3.94 | 3.6 | CCc1cnn2c(NCc3ccc[n+]([O-])c3)cc(N3CCCC[C@H]3CCO)nc12 + Cc1nc(Nc2ncc(C(=O)Nc3c(C)cccc3Cl)s2)cc(N2CCN(CCO)CC2)n1 [dasatinib] | 0.787 | 0.771 | 1.11 | 0.562 | 0.506 | 0.562 | 0.357 | 0.592 | 16.7 | 15.1 | 14.1 | 11.5 | 7.08 | 11.9 | 0.0174 | 0.0088 | 0.169 | 0.0087 | 0.00901 | 0.0412 | 0.00583 | 0.00891
26.3 | 158 | Cc1nc(Nc2ncc(C(=O)Nc3c(C)cccc3Cl)s2)cc(N2CCN(CCO)CC2)n1 + Cc1nc(Nc2ncc(C(=O)Nc3c(C)cccc3Cl)s2)cc(N2CCN(CCO)CC2)n1 [dasatinib] | 1.22 | 1.44 | 1.04 | 2.21 | 1.18 | 1.03 | 1.71 | 2.62 | 38.2 | 65.6 | 18.8 | 2300 | 23.6 | 8460 | 0.0465 | 0.0492 | 0.0619 | 0.422 | 0.0702 | 0.0256 | 0.0726 | 0.413

SMILES | GI50 of drug (ACHN [13]) [nM] | GI50 of drug (786-O [15]) [nM] | AUC of dose-response viability curve (769-P [1]) | AUC of dose-response viability curve (UO-31 [2]) | AUC of dose-response viability curve (TK-10 [3]) | AUC of dose-response viability curve (SN12C [4]) | AUC of dose-response viability curve (ACHN [5]) | AUC of dose-response viability curve (CAKI-1 [6]) | AUC of dose-response viability curve (786-O [7]) | AUC of dose-response viability curve (A498 [8]) | GI50 of drug (769-P [9]) [nM] | GI50 of drug (UO-31 [10]) [nM] | GI50 of drug (TK-10 [11]) [nM] | GI50 of drug (SN12C [12]) [nM] | GI50 of drug (CAKI-1 [14]) [nM] | GI50 of drug (A498 [16]) [nM] | minimum viability across doses (769-P [17]) | minimum viability across doses (UO-31 [18]) | minimum viability across doses (TK-10 [19]) | minimum viability across doses (SN12C [20]) | minimum viability across doses (ACHN [21]) | minimum viability across doses (CAKI-1 [22]) | minimum viability across doses (786-O [23]) | minimum viability across doses (A498 [24])
Cn1cc(C2=C(c3cn(C4CCN(Cc5ccccn5)CC4)c4ccccc34)C(=O)NC2=O)c2ccccc21 + Cc1nc(Nc2ncc(C(=O)Nc3c(C)cccc3Cl)s2)cc(N2CCN(CCO)CC2)n1 [dasatinib] | > 10000 | > 10000 | 2.27 | 3.35 | 2.85 | 2.38 | 2.28 | 2.2 | 2.71 | 3.04 | > 10000 | 6320 | > 10000 | > 10000 | > 10000 | > 10000 | 0.571 | 0.341 | 0.667 | 0.62 | 0.566 | 0.585 | 0.636 | 0.817
